One assay has as its system P. pastoris. To be noted: 4-10 mM in the medium; Xiao, Appl. Microbiol. Biotechnol. (2006); cited from earlier work.
The subject of a further assay is E. coli HM125. Briefly: Growth and expression of FimH-CRD in E. coli HM125, shake flask cultivation in mineral medium. The assay is classed as cell-based, Escherichia coli. To be noted: for mg FimH/g cell: control 0.81; for FimH / Cell pellet: mean of triplicate; for FimH: control 6.48 ± 0.36; for Cell pellet: control 7.99 ± 0.25. An excerpt:
Standard molecular techniques are used for the cloning of the FimH carbohydrate recognition domain (FimH-CRD). The plasmid pfimHs-trc, encoding FimH lectin domain (1-156 amino acids M. Vetsch P et. al. 2002—J. Mol. Biol. 322: 827-840), is kindly provided by R. Glockshuber (ETH Zürich, Switzerland). The FimH-CRD fragment is amplified by polymerase chain reaction using specific forward primer containing the restriction site NdeI and a specific reverse primer containing the thrombin cleavage site and the restriction site XhoI, respectively. The insert is ligated into the corresponding cloning site in pET21b. The resulting contrast is named pET21b-FimH-CRD.
Precultures are prepared in 25 mL sterile LB medium [Tryptone (10.0 g/L), yeast extract (5.0 g/L), NaCl (10.0 g/L), ampicillin 100 (mg/L); adjusted to pH 7.0 with NaOH]. Cultures are inoculated with a glycerol stock stored at −80° C. of the protease deficient strain E. coli HM125 (Meerman H J & Georgiou G. 1994. Biotechnology (NY) 2, 1107-1110) harboring the plasmid pET21b-FimH-CRD Vector. Precultures are incubated at 37° C. for 10-12 h. Experimental cultures are performed in a volume of 500 mL of modified M9 medium [Na2HPO4×7H2O (12.8 g/L), KH2PO4 (3 g/L), NaCl (0.5 g/L), NH4Cl (1 g/L), D-glucose (4 g/L), MgSO4 (0.12 g/L), CaCl2 (0.01 g/L) and vitamins (in mg/L): riboflavin (0.1), choline chloride (1), folic Acid (1), niacinamide (1), p-amino benzoic acid (1), pyridoxal-HCl (1), thiamine-HCl (1), myo-lnositol (2)] supplemented with 100 mg/L ampicillin. Cultures are inoculated with 5 mL of the preoculture and grown at 30° C. and 150 rpm) until the optical density at 600 nm (0D600) reached 0.8-1.0. Then 1 mM IPTG and the stabilizer(s) (obligatory additive) according to the invention are added to final concentrations of 5, 10 and 20 mM as indicated from sterile stock solutions and the cultures are grown overnight. Then the cells are cooled on ice for 5 min and harvested by centrifugation at 5′000 rpm for 20 min at 4° C. Cell are harvested by centrifugation and biomass is quantified by weighing the wet cell pellets. The pellet is suspended in a cold solution of 50 mM Tris-HCl, pH 7.5, 150 mM NaCl, 5 mM EDTA, 1 mg/mL polymyxin B sulfate and stirred for two hours at 4° C. After centrifugation at 11′000 rpm for 20 min at 4° C., the supernatant (periplasmic extract) is dialyzed overnight against 50 mM NaH2PO4, 300 mM NaCl and 10 mM imidazole, pH 8 (binding buffer) and applied to a Ni-NTA column (Sigma, Buchs, Switzerland) attached to a BioLogic fast protein liquid chromatography system (BioRad, Reinach BL, Switzerland). The column is washed with binding buffer and afterwards eluted with 50 mM NaH2PO4, 300 mM NaCl and 250 mM imidazole, pH 8 (elution buffer). Fractions containing FimH-CRD-Th-6H is are pooled and dialyzed against water and then against 20 mM HEPES, 150 mM NaCl and 1 mM CaCl2, pH 7.4.
The concentration of protein is determined by HPLC method (Agilent 1100/1200 series) using BSA as standard (Sigma). The column Poros R1/10 10 μm (100×2 mm, Morvay Analytik) is kept at 60° C.; eluents are A: 0.1% trifluoroacetic acid (TFA) in H2O and B: 90% MeCN+0.09% TFA. A gradient of 20% B to 90% B is run within 20 min at a flow rate of 0.2 mL/min. The detection is monitored at 210 nm. Results are compiled in the following tables 5 and 6.

A further assay has as its system human cancer cells. To be noted: due to SAPK and p38 MAPK signal pathway modulation; US 2004/024025; cited from earlier work.

`O=C1O[C@H]([C@@H](O)CO)C(O)=C1O` [Ascorbic acid]: the “Hirudin yield and quality” value in the assay on P. pastoris was “increased”.

With `CC1(C)CCCC(C)(C)N1[O]` [TEMPO, 2,2,6,6-Tetramethyl-1-piperidinyloxy radical, reference compound], in the assay with E. coli HM125 (additive 5 mM), the “mg FimH/g cell” value is 1.14 mg FimH/g cell, the “FimH” value came to 8.85 ± 0.21 mg/L and the “Cell pellet” value was 7.78 ± 0.45 g/L. In the assay with E. coli HM125 (additive 10 mM), the “mg FimH/g cell” value stood at 1.15 mg FimH/g cell, the “FimH” value came to 8.61 ± 0.14 mg/L and the “Cell pellet” value turned out to be 7.44 ± 0.32 g/L. Besides, in the assay with E. coli HM125 (additive 20 mM), the “mg FimH/g cell” value was found to be 1.26 mg FimH/g cell, the “FimH” value is recorded as 8.26 ± 0.54 mg/L and the “Cell pellet” value is reported as 6.54 ± 0.2 g/L. Moreover, the “Apoptosis in human cancer cells” value in the assay with human cancer cells was “increased apoptosis”.

The record behind these values is patent publication US8859235B2, “Methods in cell cultures, and related inventions, employing certain additives” (priority 2009, dated 2014).
